According to US6525001B1, “Substituted pyrimidine and pyridine herbicides” (Mid-American Commercialization Corporation, priority 1997, dated 2003):

Key:
Experiment in all cases: Test B pre-/postemergence
Format in all cases: in vivo
Set-up in all cases: key: 0 is no effect; 10 is complete control
soybean (Glycine max) = tested on: soybean (Glycine max)
Procedure, shortened: (§1)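 Scored visually 0 (none) to 10 (complete control) against untreated plants after twelve to sixteen greenhouse days. Test chemicals, formulated in surfactant-containing non-phytotoxic solvent, applied to soil after planting and, separately, onto 1- to 4-leaf (2–18 cm) plants.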

wild oat (Avena fatua) = tested on: wild oat (Avena fatua)
Procedure, shortened: as §1

[1] = tested on: bedstraw (Galium aparine)
Procedure, shortened: as §1

corn (Zea mays) = tested on: corn (Zea mays)
Procedure, shortened: as §1

[2] = tested on: momingglory (Ipomoea hederacea)
Procedure, shortened: as §1

[3] = tested on: velvetleaf (Abutilon theophrasti)
Procedure, shortened: as §1

rape (Brassica napus) = tested on: rape (Brassica napus)
Procedure, shortened: as §1

[4] = tested on: wheat (Triticum aestivum)
Procedure, shortened: as §1

[5] = tested on: blackgrass (Alopecurus myosuroides)
Procedure, shortened: as §1

[6] = tested on: cocklebur (Xanthium strumarium)
Procedure, shortened: as §1

[7] = tested on: broadleaf signalgrass (Brachiaria decumbens)
Procedure, shortened: as §1

[8] = tested on: pigweed (Amaranthus retroflexus)
Procedure, shortened: as §1

[9] = tested on: crabgrass (Digitaria sanguinalis)
Procedure, shortened: as §1

[10] = tested on: sugar beet (Beta vulgaris)
Procedure, shortened: as §1

[11] = Preemergence, Rate 62 g/ha, scale of 0 to 10

## Cc1cnc(-c2ccc(C(F)(F)F)cc2)nc1Cn1ccc(C#N)n1 [Compound 53]
Soybean (Glycine max); [11]
  Plant response rating, Soybean: 0
Soybean (Glycine max); Rate 62 g/ha, Postemergence
  Soybean plant response rating: 5
Soybean (Glycine max); Rate 125 g/ha, Postemergence
  Soybean plant response rating: 5
Soybean (Glycine max); Rate 125 g/ha, Preemergence
  Plant response rating, Soybean: 0
Soybean (Glycine max); Rate 250 g/ha, Postemergence
  Plant response rating, Soybean: 7
Soybean (Glycine max); Rate 250 g/ha, Preemergence
  Plant response rating, Soybean: 0
Soybean (Glycine max); Rate 500 g/ha, Postemergence
  Plant response rating, Soybean: 7
Soybean (Glycine max); Rate 500 g/ha, Preemergence
  Plant response rating, Soybean: 0
Wild oat (Avena fatua); [11]
  Plant response rating, Wild oats: 0
Wild oat (Avena fatua); Rate 62 g/ha, Postemergence
  Wild oats plant response rating: 1
Wild oat (Avena fatua); Rate 125 g/ha, Postemergence
  Wild oats plant response rating: 1
Wild oat (Avena fatua); Rate 125 g/ha, Preemergence
  Plant response rating, Wild oats: 0
Wild oat (Avena fatua); Rate 250 g/ha, Postemergence
  Plant response rating, Wild oats: 1
Wild oat (Avena fatua); Rate 250 g/ha, Preemergence
  Plant response rating, Wild oats: 1
Wild oat (Avena fatua); Rate 500 g/ha, Postemergence
  Plant response rating, Wild oats: 2
Wild oat (Avena fatua); Rate 500 g/ha, Preemergence
  Plant response rating, Wild oats: 1
[1]; [11]
  Plant response rating, Bedstraw: 1
[1]; Rate 62 g/ha, Postemergence
  Bedstraw plant response rating: 5
[1]; Rate 125 g/ha, Postemergence
  Bedstraw plant response rating: 8
[1]; Rate 125 g/ha, Preemergence
  Plant response rating, Bedstraw: 3
[1]; Rate 250 g/ha, Postemergence
  Plant response rating, Bedstraw: 10
[1]; Rate 250 g/ha, Preemergence
  Plant response rating, Bedstraw: 7
[1]; Rate 500 g/ha, Postemergence
  Plant response rating, Bedstraw: 10
[1]; Rate 500 g/ha, Preemergence
  Plant response rating, Bedstraw: 8
Corn (Zea mays); [11]
  Plant response rating, Corn: 0
Corn (Zea mays); Rate 62 g/ha, Postemergence
  Corn plant response rating: 1
Corn (Zea mays); Rate 125 g/ha, Postemergence
  Corn plant response rating: 1
Corn (Zea mays); Rate 125 g/ha, Preemergence
  Plant response rating, Corn: 0
Corn (Zea mays); Rate 250 g/ha, Postemergence
  Plant response rating, Corn: 1
Corn (Zea mays); Rate 250 g/ha, Preemergence
  Plant response rating, Corn: 0
Corn (Zea mays); Rate 500 g/ha, Postemergence
  Plant response rating, Corn: 1
Corn (Zea mays); Rate 500 g/ha, Preemergence
  Plant response rating, Corn: 0
[2]; [11]
  Plant response rating, Morningglory: 1
[2]; Rate 125 g/ha, Postemergence
  Morningglory plant response rating: 3
[2]; Rate 125 g/ha, Preemergence
  Plant response rating, Morningglory: 2
[2]; Rate 250 g/ha, Preemergence
  Plant response rating, Morningglory: 2
[2]; Rate 500 g/ha, Postemergence
  Plant response rating, Morningglory: 3
[2]; Rate 500 g/ha, Preemergence
  Plant response rating, Morningglory: 5
[3]; [11]
  Plant response rating, Velvetleaf: 0
[3]; Rate 62 g/ha, Postemergence
  Velvetleaf plant response rating: 6
[3]; Rate 125 g/ha, Postemergence
  Velvetleaf plant response rating: 6
[3]; Rate 125 g/ha, Preemergence
  Plant response rating, Velvetleaf: 2
[3]; Rate 250 g/ha, Postemergence
  Plant response rating, Velvetleaf: 7
[3]; Rate 250 g/ha, Preemergence
  Plant response rating, Velvetleaf: 4
[3]; Rate 500 g/ha, Postemergence
  Plant response rating, Velvetleaf: 7
[3]; Rate 500 g/ha, Preemergence
  Plant response rating, Velvetleaf: 8
Rape (Brassica napus); [11]
  Plant response rating, Rape: 2
Rape (Brassica napus); Rate 62 g/ha, Postemergence
  Rape plant response rating: 8
Rape (Brassica napus); Rate 125 g/ha, Postemergence
  Rape plant response rating: 8
Rape (Brassica napus); Rate 125 g/ha, Preemergence
  Plant response rating, Rape: 5
Rape (Brassica napus); Rate 250 g/ha, Postemergence
  Plant response rating, Rape: 8
Rape (Brassica napus); Rate 250 g/ha, Preemergence
  Plant response rating, Rape: 7
Rape (Brassica napus); Rate 500 g/ha, Postemergence
  Plant response rating, Rape: 9
Rape (Brassica napus); Rate 500 g/ha, Preemergence
  Plant response rating, Rape: 7
[4]; [11]
  Plant response rating, Wheat: 0
[4]; Rate 62 g/ha, Postemergence
  Wheat plant response rating: 1
[4]; Rate 125 g/ha, Postemergence
  Wheat plant response rating: 1
[4]; Rate 125 g/ha, Preemergence
  Plant response rating, Wheat: 0
[4]; Rate 250 g/ha, Postemergence
  Plant response rating, Wheat: 1
[4]; Rate 250 g/ha, Preemergence
  Plant response rating, Wheat: 0
[4]; Rate 500 g/ha, Postemergence
  Plant response rating, Wheat: 2
[4]; Rate 500 g/ha, Preemergence
  Plant response rating, Wheat: 1
[5]; [11]
  Plant response rating, Blackgrass: 0
[5]; Rate 62 g/ha, Postemergence
  Blackgrass plant response rating: 1
[5]; Rate 125 g/ha, Postemergence
  Blackgrass plant response rating: 1
[5]; Rate 125 g/ha, Preemergence
  Plant response rating, Blackgrass: 0
[5]; Rate 250 g/ha, Postemergence
  Plant response rating, Blackgrass: 1
[5]; Rate 250 g/ha, Preemergence
  Plant response rating, Blackgrass: 1
[5]; Rate 500 g/ha, Postemergence
  Plant response rating, Blackgrass: 6
[5]; Rate 500 g/ha, Preemergence
  Plant response rating, Blackgrass: 2
[6]; [11]
  Plant response rating, Cocklebur: 0
[6]; Rate 62 g/ha, Postemergence
  Cocklebur plant response rating: 5
[6]; Rate 125 g/ha, Postemergence
  Cocklebur plant response rating: 5
[6]; Rate 125 g/ha, Preemergence
  Plant response rating, Cocklebur: 0
[6]; Rate 250 g/ha, Postemergence
  Plant response rating, Cocklebur: 6
[6]; Rate 250 g/ha, Preemergence
  Plant response rating, Cocklebur: 0
[6]; Rate 500 g/ha, Postemergence
  Plant response rating, Cocklebur: 6
[6]; Rate 500 g/ha, Preemergence
  Plant response rating, Cocklebur: 1
[7]; Rate 62 g/ha, Postemergence
  B. signalgrass plant response rating: 1
[7]; Rate 62 g/ha, Preemergence
  B. signalgrass plant response rating: 0
[7]; Rate 125 g/ha, Postemergence
  B. signalgrass plant response rating: 1
[7]; Rate 125 g/ha, Preemergence
  Plant response rating, B. signalgrass: 1
[7]; Rate 250 g/ha, Postemergence
  Plant response rating, B. signalgrass: 2
[7]; Rate 250 g/ha, Preemergence
  Plant response rating, B. signalgrass: 2
[7]; Rate 500 g/ha, Postemergence
  Plant response rating, B. signalgrass: 2
[7]; Rate 500 g/ha, Preemergence
  Plant response rating, B. signalgrass: 6
[8]; [11]
  Plant response rating, Redroot pigweed: 0
[8]; Rate 62 g/ha, Postemergence
  Redroot pigweed plant response rating: 2
[8]; Rate 125 g/ha, Postemergence
  Redroot pigweed plant response rating: 6
[8]; Rate 125 g/ha, Preemergence
  Plant response rating, Redroot pigweed: 2
[8]; Rate 250 g/ha, Postemergence
  Plant response rating, Redroot pigweed: 7
[8]; Rate 250 g/ha, Preemergence
  Plant response rating, Redroot pigweed: 7
[8]; Rate 500 g/ha, Postemergence
  Plant response rating, Redroot pigweed: 7
[8]; Rate 500 g/ha, Preemergence
  Plant response rating, Redroot pigweed: 8
[9]; Rate 62 g/ha, Postemergence
  Crabgrass plant response rating: 1
[9]; Rate 125 g/ha, Postemergence
  Crabgrass plant response rating: 2
[9]; Rate 125 g/ha, Preemergence
  Plant response rating, Crabgrass: 4
[9]; Rate 250 g/ha, Postemergence
  Plant response rating, Crabgrass: 4
[9]; Rate 250 g/ha, Preemergence
  Plant response rating, Crabgrass: 6
[9]; Rate 500 g/ha, Postemergence
  Plant response rating, Crabgrass: 4
[9]; Rate 500 g/ha, Preemergence
  Plant response rating, Crabgrass: 8
[10]; [11]
  Plant response rating, Sugarbeets: 4
[10]; Rate 62 g/ha, Postemergence
  Sugarbeets plant response rating: 9
[10]; Rate 125 g/ha, Postemergence
  Sugarbeets plant response rating: 10
[10]; Rate 125 g/ha, Preemergence
  Plant response rating, Sugarbeets: 8
[10]; Rate 250 g/ha, Postemergence
  Plant response rating, Sugarbeets: 10
[10]; Rate 250 g/ha, Preemergence
  Plant response rating, Sugarbeets: 9
[10]; Rate 500 g/ha, Postemergence
  Plant response rating, Sugarbeets: 10
[10]; Rate 500 g/ha, Preemergence
  Plant response rating, Sugarbeets: 9
